For the assay, the target named is IKZF2 (Homo sapiens (Human), UniProt Q96SW2+Q9UKS7). As to the kind of experiment: IKZF2 HiBiT Assay (Jurkat-IKZF2-HiBiT cell line). The note with it: Jurkat-IKZF2-HiBiT cells, 24 hours; for DC50: read-out: HiBit assay degradation analysis DC50; for Dmax: read-out: HiBit assay degradation analysis Dmax. Format: cell-based. In a few lines:
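Jurkat cells carrying HiBiT-tagged IKZF2 were exposed to serially diluted compound for 24 h at 37 °C. Remaining IKZF2 was measured by Nano-Glo HiBiT lytic luminescence after 10-20 min at room temperature. Signal was normalized to DMSO, and IC50 came from a four-parameter variable-slope fit.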

Molecules are shown by their SMILES.

Chain of IKZF2 (Q9UKS7 whole entry): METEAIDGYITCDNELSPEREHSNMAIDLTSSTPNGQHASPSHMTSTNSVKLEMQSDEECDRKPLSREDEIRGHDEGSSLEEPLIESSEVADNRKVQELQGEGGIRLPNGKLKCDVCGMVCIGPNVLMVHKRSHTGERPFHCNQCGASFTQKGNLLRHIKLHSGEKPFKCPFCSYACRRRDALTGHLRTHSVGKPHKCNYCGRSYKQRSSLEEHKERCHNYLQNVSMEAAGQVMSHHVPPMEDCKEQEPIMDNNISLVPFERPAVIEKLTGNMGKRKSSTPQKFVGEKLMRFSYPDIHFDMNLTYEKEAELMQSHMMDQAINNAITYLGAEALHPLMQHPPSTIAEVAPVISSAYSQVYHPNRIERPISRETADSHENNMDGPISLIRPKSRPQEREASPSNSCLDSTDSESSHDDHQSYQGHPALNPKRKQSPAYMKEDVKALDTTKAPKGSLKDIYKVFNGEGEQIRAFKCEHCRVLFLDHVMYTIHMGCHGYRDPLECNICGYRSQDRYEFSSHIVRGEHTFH
Chain of IKZF2 (Q96SW2 whole entry): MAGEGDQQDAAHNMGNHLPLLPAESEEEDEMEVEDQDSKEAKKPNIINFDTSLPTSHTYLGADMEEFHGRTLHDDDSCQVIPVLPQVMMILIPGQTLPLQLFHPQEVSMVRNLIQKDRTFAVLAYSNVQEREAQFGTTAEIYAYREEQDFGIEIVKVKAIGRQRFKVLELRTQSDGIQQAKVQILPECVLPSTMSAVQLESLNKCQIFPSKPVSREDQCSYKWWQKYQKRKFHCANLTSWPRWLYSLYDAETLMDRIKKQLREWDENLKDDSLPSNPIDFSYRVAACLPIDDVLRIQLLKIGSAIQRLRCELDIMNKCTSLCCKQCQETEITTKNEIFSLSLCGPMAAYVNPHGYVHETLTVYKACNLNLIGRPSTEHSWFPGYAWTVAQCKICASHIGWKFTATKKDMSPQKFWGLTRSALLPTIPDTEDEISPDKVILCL
Chain of IKZF2 (Q16531 whole entry partner): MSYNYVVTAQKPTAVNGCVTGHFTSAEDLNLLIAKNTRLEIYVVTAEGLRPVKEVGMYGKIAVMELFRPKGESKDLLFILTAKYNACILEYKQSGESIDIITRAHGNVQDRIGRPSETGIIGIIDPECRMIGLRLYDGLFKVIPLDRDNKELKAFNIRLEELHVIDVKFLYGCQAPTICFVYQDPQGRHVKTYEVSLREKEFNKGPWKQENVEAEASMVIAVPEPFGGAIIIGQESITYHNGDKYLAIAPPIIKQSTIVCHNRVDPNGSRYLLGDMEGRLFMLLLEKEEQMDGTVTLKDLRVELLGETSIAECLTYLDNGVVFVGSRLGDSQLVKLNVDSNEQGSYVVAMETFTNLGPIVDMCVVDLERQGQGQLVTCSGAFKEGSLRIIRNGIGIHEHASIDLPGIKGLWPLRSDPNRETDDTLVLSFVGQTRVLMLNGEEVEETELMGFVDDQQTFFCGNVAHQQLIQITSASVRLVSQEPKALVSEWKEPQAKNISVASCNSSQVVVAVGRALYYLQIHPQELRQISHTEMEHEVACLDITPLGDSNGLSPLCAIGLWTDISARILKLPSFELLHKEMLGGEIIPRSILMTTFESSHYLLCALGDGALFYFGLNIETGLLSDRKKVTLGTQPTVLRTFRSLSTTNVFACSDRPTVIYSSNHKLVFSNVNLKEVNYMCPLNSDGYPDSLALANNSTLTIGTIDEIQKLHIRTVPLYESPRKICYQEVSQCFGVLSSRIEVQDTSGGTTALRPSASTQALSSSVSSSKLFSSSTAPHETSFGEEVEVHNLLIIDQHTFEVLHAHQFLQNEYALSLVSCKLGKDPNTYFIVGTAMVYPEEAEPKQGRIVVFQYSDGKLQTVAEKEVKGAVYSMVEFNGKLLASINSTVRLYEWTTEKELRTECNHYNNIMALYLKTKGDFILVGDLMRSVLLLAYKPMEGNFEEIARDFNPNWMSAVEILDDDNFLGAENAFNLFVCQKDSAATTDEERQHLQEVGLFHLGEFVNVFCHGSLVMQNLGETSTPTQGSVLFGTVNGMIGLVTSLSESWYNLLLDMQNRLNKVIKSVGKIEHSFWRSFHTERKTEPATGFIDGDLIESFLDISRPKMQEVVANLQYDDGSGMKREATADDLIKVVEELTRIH

In the case of `O=C1CCC(N2Cc3c(ccc4c3OCC43CCN(Cc4cccc5nccnc45)CC3)C2=O)C(=O)N1` (stereo not drawn) [Compound A47, 3-(6-oxo-1′-(quinoxalin-5-ylmethyl)-6,8-dihydro-2H,7H-spiro[furo[2,3-e]isoindole-3,4′-piperidin]-7-yl)piperidine-2,6-dione], the 50% degradation concentration (DC50) is greater than 500 nM and the Dmax was in the range of 40 to 60%. For the compound `Cc1nn(C)cc1-c1cccc(CN2CCC3(CC2)COc2c3ccc3c2CN([C@H]2CCC(=O)NC2=O)C3=O)c1` [Compound A283, (S)-3-(1′-(3-(1,3-dimethyl-1H-pyrazol-4-yl)benzyl)-6-oxo-6,8-dihydro-2H,7H-spiro[furo[2,3-e]isoindole-3,4′-piperidin]-7-yl)piperidine-2,6-dione], the DC50 lay in the range of 50 to 200 nM and the Dmax is 60 to 80%. As for `O=C1CCC(N2Cc3c(ccc4c3OCC43CCN(Cc4ccc5nn(CCO)cc5c4)CC3)C2=O)C(=O)N1` (stereo not drawn) [Compound A345, 3-(1′-((2-(2-hydroxyethyl)-2H-indazol-5-yl)methyl)-6-oxo-6,8-dihydro-2H,7H-spiro [furo[2,3-e]isoindole-3,4′-piperidin]-7-yl)piperidine-2,6-dione], the DC50 is greater than 500 nM and the Dmax is less than 40%.

As to `O=C1CCC(N2Cc3c(ccc4c3OCC43CCN(Cc4ccc(S(=O)(=O)c5ccccc5)cc4)CC3)C2=O)C(=O)N1` (stereo not drawn) [Compound A340, 3-(6-oxo-1′-(4-(phenylsulfonyl)benzyl)-6,8-dihydro-2H,7H-spiro[furo[2,3-e]isoindole-3,4′-piperidin]-7-yl)piperidine-2,6-dione], the DC50 was greater than 500 nM and the Dmax was 40 to 60%. For `O=C1CCC(N2Cc3c(ccc4c3OCC43CCN(Cc4n[nH]c5ccccc45)CC3)C2=O)C(=O)N1` (stereo not drawn) [Compound A227, 3-(1′-((1H-indazol-3-yl)methyl)-6-oxo-6,8-dihydro-2H,7H-spiro[furo[2,3-e]isoindole-3,4′-piperidin]-7-yl)piperidine-2,6-dione], the DC50 was greater than 500 nM and the Dmax was 40 to 60%.

Turning to `O=C1CCC(N2Cc3c(ccc4c3OCC43CCN(C[C@H]4C[C@H](Oc5ccc(F)cc5)C4)CC3)C2=O)C(=O)N1` (stereo partly drawn) [Compound A351, 3-(1′-(((1r,3r)-3-(4-fluorophenoxy)cyclobutyl)methyl)-6-oxo-6,8-dihydro-2H,7H-spiro[furo[2,3-e]isoindole-3,4′-piperidin]-7-yl)piperidine-2,6-dione], the DC50 is greater than 500 nM and the Dmax fell in the range of 40 to 60%. For `O=C1CCC(N2Cc3c(ccc4c3OCC43CCN(Cc4cccc(-c5ccccc5)c4)CC3)C2=O)C(=O)N1` (stereo not drawn) [Compound A102, 3-(1′-([1,1′-biphenyl]-3-ylmethyl)-6-oxo-6,8-dihydro-2H,7H-spiro[furo[2,3-e]isoindole-3,4′-piperidin]-7-yl)piperidine-2,6-dione], in that order: 200 to 500 nM and 40 to 60%. For `O=C1CCC(N2Cc3c(ccc4c3OCC43CCN(Cc4cccc(NC(=O)c5ccc(Cl)cc5)c4)CC3)C2=O)C(=O)N1` (stereo not drawn) [Compound A178, 4-chloro-N-(3-((7-(2,6-dioxopiperidin-3-yl)-6-oxo-7,8-dihydro-2H,6H-spiro[furo[2,3-e]isoindole-3,4′-piperidin]-1′-yl)methyl)phenyl)benzamide], in that order: less than 50 nM and greater than 80%. Turning to `O=C1CCC(N2Cc3c(ccc4c3OCC43CCN(Cc4cccc(C(=O)O)c4)CC3)C2=O)C(=O)N1` (stereo not drawn) [Compound A99, 3-((7-(2,6-dioxopiperidin-3-yl)-6-oxo-7,8-dihydro-2H,6H-spiro[furo[2,3-e]isoindole-3,4′-piperidin]-1′-yl)methyl)benzoic acid], the DC50 was greater than 500 nM and the Dmax was less than 40%. Consider `O=C1CCC(N2Cc3c(ccc4c3OCC43CCN(Cc4cccc(Oc5ccccc5)c4)CC3)C2=O)C(=O)N1` (stereo not drawn) [Compound A86, 3-(6-oxo-1′-(3-phenoxybenzyl)-6,8-dihydro-2H,7H-spiro[furo[2,3-e]isoindole-3,4′-piperidin]-7-yl)piperidine-2,6-dione], for which the DC50 was greater than 500 nM and the Dmax fell in the range of 40 to 60%. For `COCCn1cc2cc(CN3CCC4(CC3)COc3c4ccc4c3CN(C3CCC(=O)NC3=O)C4=O)ccc2n1` (stereo not drawn) [Compound A341, 3-(1′-((2-(2-methoxyethyl)-2H-indazol-5-yl)methyl)-6-oxo-6,8-dihydro-2H,7H-spiro[furo[2,3-e]isoindole-3,4′-piperidin]-7-yl) piperidine-2,6-dione], in that order: greater than 500 nM and less than 40%. Turning to `O=C1CC[C@H](N2Cc3c(ccc4c3OCC43CCN(Cc4ccc5cc[nH]c5c4)CC3)C2=O)C(=O)N1` [Compound A172, (S)-3-(1′-((1H-indol-6-yl)methyl)-6-oxo-6,8-dihydro-2H,7H-spiro[furo[2,3-e]isoindole-3,4′-piperidin]-7-yl)piperidine-2,6-dione], the DC50 was less than 50 nM and the Dmax is 60 to 80%. On to `O=C1CCC(N2Cc3c(ccc4c3OCC43CCN(Cc4cnn(S(=O)(=O)c5ccc(F)cc5)c4)CC3)C2=O)C(=O)N1` [Compound A354, (S)-3-(1′-((1-((4-fluorophenyl)sulfonyl)-1H-pyrazol-4-yl)methyl)-6-oxo-6,8-dihydro-2H,7H-spiro[furo[2,3-e]isoindole-3,4′-piperidin]-7-yl)piperidine-2,6-dione], for which the DC50 is greater than 500 nM. In the case of `N#Cc1ccc(-n2cc(CN3CCC4(CC3)COc3c4ccc4c3CN([C@H]3CCC(=O)NC3=O)C4=O)cn2)cc1` [Compound A359, (S)-4-(4-((7-(2,6-dioxopiperidin-3-yl)-6-oxo-7,8-dihydro-2H,6H-spiro[furo[2,3-e]isoindole-3,4′-piperidin]-1′-yl)methyl)-1H-pyrazol-1-yl)benzonitrile], the DC50 is less than 50 nM and the Dmax is 60 to 80%. Turning to `O=C1CC[C@H](N2Cc3c(ccc4c3OCC43CCN(Cc4cnn(S(=O)(=O)c5ccc(Cl)cc5)c4)CC3)C2=O)C(=O)N1` [Compound A352, (S)-3-(1′-((1-((4-chlorophenyl)sulfonyl)-1H-pyrazol-4-yl)methyl)-6-oxo-6,8-dihydro-2H,7H-spiro[furo[2,3-e]isoindole-3,4′-piperidin]-7-yl)piperidine-2,6-dione], the Dmax was less than 40%. Consider `O=C1CCC(N2Cc3c(ccc4c3OCC43CCN(Cc4ccc5ccn(Cc6cccnc6)c5c4)CC3)C2=O)C(=O)N1` (stereo not drawn) [Compound A154, 3-(6-oxo-1′-((1-(pyridin-3-ylmethyl)-1H-indol-6-yl)methyl)-6,8-dihydro-2H,7H-spiro[furo[2,3-e]isoindole-3,4′-piperidin]-7-yl)piperidine-2,6-dione], for which the DC50 lay in the range of 200 to 500 nM and the Dmax lay in the range of 60 to 80%. As to `O=C1CCC(N2Cc3c(ccc4c3OCC43CCN(Cc4ccn(-c5ccccc5F)n4)CC3)C2=O)C(=O)N1` (stereo not drawn) [Compound A323, 3-(1′-((1-(2-fluorophenyl)-1H-pyrazol-3-yl)methyl)-6-oxo-6,8-dihydro-2H,7H-spiro[furo[2,3-e]isoindole-3,4′-piperidin]-7-yl)piperidine-2,6-dione], the 50% degradation concentration (DC50) is greater than 500 nM and the Dmax is less than 40%. Consider `O=C1CCC(N2Cc3c(ccc4c3OCC43CCN(CC4CCN(c5ccccc5)C4)CC3)C2=O)C(=O)N1` (stereo not drawn) [Compound A138, 3-(6-oxo-1′-((1-phenylpyrrolidin-3-yl)methyl)-6,8-dihydro-2H,7H-spiro[furo[2,3-e]isoindole-3,4′-piperidin]-7-yl)piperidine-2,6-dione], for which the DC50 is greater than 500 nM and the Dmax is 40 to 60%. In the case of `O=C1CCC(N2Cc3c(ccc4c3OCC43CCN(Cc4ccc5nccn5c4)CC3)C2=O)C(=O)N1` (stereo not drawn) [Compound A79], the DC50 is greater than 500 nM and the Dmax is less than 40%. For the compound `O=C1CCC(N2Cc3c(ccc4c3OCC43CCN(Cc4cccc5cccc(F)c45)CC3)C2=O)C(=O)N1` (stereo not drawn) [Compound A50, 3-(1′-((8-fluoronaphthalen-1-yl)methyl)-6-oxo-6,8-dihydro-2H,7H-spiro[furo[2,3-e]isoindole-3,4′-piperidin]-7-yl)piperidine-2,6-dione], the DC50 was less than 50 nM and the Dmax lay in the range of 60 to 80%. For `O=C1CC[C@H](N2Cc3c(ccc4c3OCC43CCN(Cc4cccc(-c5cc[nH]n5)c4)CC3)C2=O)C(=O)N1` [Compound A290, (S)-3-(1′-(3-(1H-pyrazol-3-yl)benzyl)-6-oxo-6,8-dihydro-2H,7H-spiro[furo[2,3-e]isoindole-3,4′-piperidin]-7-yl)piperidine-2,6-dione], in that order: less than 50 nM and 60 to 80%. With `O=C1CCC(N2Cc3c(ccc4c3OCC43CCN(Cc4cnn(S(=O)(=O)c5cccc(Cl)c5F)c4)CC3)C2=O)C(=O)N1` [Compound A357, (S)-3-(1′-((1-((3-chloro-2-fluorophenyl)sulfonyl)-1H-pyrazol-4-yl)methyl)-6-oxo-6,8-dihydro-2H,7H-spiro[furo[2,3-e]isoindole-3,4′-piperidin]-7-yl)piperidine-2,6-dione], the DC50 was less than 50 nM. On to `O=C1CCC(N2Cc3c(ccc4c3OCC43CCN(Cc4cccc(-c5ncon5)c4)CC3)C2=O)C(=O)N1` (stereo not drawn) [Compound A150, 3-(1′-(3-(1,2,4-oxadiazol-3-yl)benzyl)-6-oxo-6,8-dihydro-2H,7H-spiro[furo[2,3-e]isoindole-3,4′-piperidin]-7-yl)piperidine-2,6-dione], for which the DC50 is 50 to 200 nM and the Dmax lay in the range of 60 to 80%. For `O=C1CCC(N2Cc3c(ccc4c3OCC43CCN(CC4CCC(c5ccccc5)CC4)CC3)C2=O)C(=O)N1` (stereo not drawn) [Compound A89, 3-(6-oxo-1′-((4-phenylcyclohexyl)methyl)-6,8-dihydro-2H,7H-spiro[furo[2,3-e]isoindole-3,4′-piperidin]-7-yl)piperidine-2,6-dione], in that order: 50 to 200 nM and 60 to 80%.

(Values after patent publication US20250215012A1, “IKZF2 DEGRADERS AND USES THEREOF” (REGENTS OF THE UNIVERSITY OF MICHIGAN, priority 2022, published 2025).)
